Test [1] deals with T1, EP3 membrane (EP3 receptor) (Homo sapiens, UniProt P43115).
T1 construct: purchased Millipore HTS092M
T1 sequence (P43115 1-390): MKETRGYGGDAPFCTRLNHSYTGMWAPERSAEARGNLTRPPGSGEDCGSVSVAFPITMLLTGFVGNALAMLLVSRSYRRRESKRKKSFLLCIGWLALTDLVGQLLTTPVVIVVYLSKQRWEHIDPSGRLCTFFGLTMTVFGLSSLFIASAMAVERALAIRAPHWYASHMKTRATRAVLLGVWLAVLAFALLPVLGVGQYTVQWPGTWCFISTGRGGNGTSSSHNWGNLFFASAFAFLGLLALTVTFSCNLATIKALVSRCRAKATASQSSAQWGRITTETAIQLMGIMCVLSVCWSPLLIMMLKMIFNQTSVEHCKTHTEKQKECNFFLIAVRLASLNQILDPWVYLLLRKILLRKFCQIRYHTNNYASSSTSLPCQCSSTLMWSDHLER
Put plainly: [3H]-PGE2 binding; EP3 competition binding (SPA). Put shortly: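 SPA competition at room temperature, 2 h: EP3 membranes 2 μg/well, 2 nM [3H]-PGE2, 0.1% DMSO, in Tris/MgCl2/EDTA buffer pH 7.4. Compounds in 1:3 serial dilution; scintillation read; Ki by one-site nonlinear fit.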

In test [2] the target is T2, CHO cells over-expressing the EP3 receptor (Homo sapiens, UniProt P43115).
T2 construct: expressed in transfected cells; host or cells: CHO cells
T2 sequence (P43115 1-390): T1 sequence (P43115 1-390)
As to the kind of experiment: CHO cell cAMP assay; EP3 cAMP antagonist dose response (sulprostone reference), HTRF. Type of test: cell-based. The settings on record: sulprostone 700 nM (EC80) and FSK 2 μM (EC70); read-out: CHO_cAMP IC50. On the procedure:
Biological Example 2: CHO Cell cAMP Assay
This assay monitored the cAMP generation in CHO cells over-expressing the EP3 receptor in the presence or absence of antagonist stimulated with Forskolin (FSK, CAS No. 66428-89-5) and a known EP3 Agonist (sulprostone, CAS No. 60325-46-4). For detection, a homogeneous competitive immunoassay (Time Resolved Fluorescence Energy Transfer (hTR-FRET)) was used.
Cells (6K cells per well) were plated in Poly-D-Lysine coated plates the day before the assay was to be run and were incubated at 37° C. One hour before the assay the media was removed and replaced with assay buffer (500 mL HBSS (+Ca)+2.5 mL 1M HEPES+6.66 mL 7.5% BSA) (starved at 37° C.). At the start of the assay the buffer was removed from the cells and replaced with buffer containing test compound(s). Sulprostone at an EC80 dose (700 nM) and FSK at an EC70 dose (2 μM) were added to initiate the reaction (37° C. for 30 minutes).
FSK increases cAMP production and sulprostone decreases cAMP production produced by FSK. In this assay, EP3 antagonists will increase the cAMP to the level of cAMP generated by FSK alone.
The reaction was terminated with the addition of cAMP detection reagents (labeled cAMP and labeled cAMP antibody in lysis buffer (HTRF reagent, which utilizes a cryptate-labeled anti-cAMP and d2-labeled cAMP-d2 is an HTRF acceptor fluorophore)). Approximately one hour later the plates were read on an Envision (Perkin Elmer) in HTRF mode. Well results were calculated based on a ratio of counts at 665 nm and 615 nm (data output was a calculation of the ratio: (read @665 nm/read @ 615 nm)*1000. For test compounds dosed serially, well results were converted to nM cAMP using a cAMP standard run on each plate. nM cAMP from a set of wells dosed with test compound(s) were plotted. nM cAMP was calculated for each well from a standard curve located on each plate (P1-12 and P13-24) by first calculating the slope and deriving the intercept(b):
[formula] NScAMP_s tan dard_cruve=m(nM cAMP_s tan dard_curve)+b
NSP, NSN, NSsample were converted to nM cAMP using the following equation: […]
IC50 values were determined from a […] (Hill equation) of a single 11-point compound dosing. A best-fit curve was determined by the minimum sum of squares method plotting cAMP produced vs compound concentration.

Some results are limits rather than exact numbers.

`O=C(NC/C=C1\CCCc2cnn(-c3ccc(Cl)cc3Cl)c21)NS(=O)(=O)c1cc(Cl)c(Cl)s1` [Compound #84, (E)-4,5-dichloro-N-((2-(1-(2,4-dichlorophenyl)-1,4,5,6-tetrahydro-7H-indazol-7-ylidene)ethyl)carbamoyl)thiophene-2-sulfonamide] registered a Ki in test [1] of 1 nM. For the same compound, the 50% inhibitory concentration (IC50) in test [2] is 5 nM.

Regarding `Cn1cc(S(=O)(=O)NC(=O)NC/C=C2\CCCc3cnn(Cc4ccc(Cl)cc4Cl)c32)cn1` [Compound #152, (E)-N-((2-(1-(2,4-dichlorobenzyl)-1,4,5,6-tetrahydro-7H-indazol-7-idene)ethyl)carbamoyl)-1-methyl-1H-pyrazole-4-sulfonamide], the Ki in test [1] is 9 nM. In addition, the IC50 in test [2] is 8 nM.

For `O=C(NC/C(F)=C1/c2c(cnn2Cc2ccc(Cl)cc2Cl)CCC1F)NS(=O)(=O)c1cc(Cl)c(Cl)s1` (centres unmarked) [Compound #100, (E)-4,5-dichloro-N-((2-(1-(2,4-dichlorobenzyl)-6-fluoro-1,4,5,6-tetrahydro-7H-indazol-7-ylidene)-2-fluoroethyl)carbamoyl)thiophene-2-sulfonamide], affinity in test [1] was put at a Ki of 3 nM. In addition, the IC50 in test [2] came out at 7 nM.

Take `O=C(NC/C(F)=C1\CCCc2cnn(-c3ccc(C(F)(F)F)cc3)c21)NS(=O)(=O)c1ccc2c(c1)OCCO2` [Compound #116, (Z)—N-((2-fluoro-2-(1-(4-(trifluoromethyl)phenyl)-1,4,5,6-tetrahydro-7H-indazol-7-ylidene)ethyl)carbamoyl)-2,3-dihydrobenzo[b][1,4]dioxine-6-sulfonamide]: the Ki in test [1] was 4100 nM. Also, in test [2], the IC50 was over 20000 nM.

In test [1], `O=C(NC/C=C1/c2c(cnn2Cc2ccc(Cl)cc2Cl)CCC1F)NS(=O)(=O)c1ccc(Cl)cc1` (centres unmarked) [Compound #73, (Z)-4-chloro-N-((2-(1-(2,4-dichlorobenzyl)-6-fluoro-1,4,5,6-tetrahydro-7H-indazol-7-ylidene)ethyl)carbamoyl)benzenesulfonamide] showed a Ki of 3 nM. In test [2], the half-inhibitory concentration (IC50) turned out to be 5 nM.

Take `O=C(NC/C(F)=C1\CCCCc2cnn(Cc3ccc(Cl)cc3Cl)c21)NS(=O)(=O)c1cc(Cl)c(Cl)s1` [Compound #120, (Z)-4,5-dichloro-N-((2-(1-(2,4-dichlorobenzyl)-4,5,6,7-tetrahydrocyclohepta[c]pyrazol-8(1H)-ylidene)-2-fluoroethyl)carbamoyl)thiophene-2-sulfonamide]: the Ki in test [1] stood at 10 nM. Moreover, the IC50 in test [2] amounted to 12 nM.

With `CS(=O)(=O)c1ccc(-n2ncc3c2/C(=C/CNC(=O)NS(=O)(=O)c2cc(Cl)c(Cl)s2)CCC3)cc1` [Compound #126, (E)-4,5-dichloro-N-((2-(1-(4-(methylsulfonyl)phenyl)-1,4,5,6-tetrahydro-7H-indazol-7-ylidene)ethyl)carbamoyl)thiophene-2-sulfonamide], the Ki in test [1] was 1 nM. Moreover, the IC50 in test [2] is 30 nM.

Turning to `O=C(C/C=C1\CCCc2cnn(Cc3ccc(Cl)cc3Cl)c21)NS(=O)(=O)c1cnc2ccccc2c1` [Compound #22, (E)-3-(1-(2,4-dichlorobenzyl)-1,4,5,6-tetrahydro-7H-indazol-7-ylidene)-N-(quinolin-3-ylsulfonyl)propenamide], in test [1], the Ki came to 373 nM. The concentration for half-maximal inhibition (IC50) in test [2] is 2900 nM.

As for `O=C(NC/C=C1\CCCc2cnn(Cc3ccc(Cl)cc3Cl)c21)NS(=O)(=O)c1cccs1` [Compound #10, (E)-N-((2-(1-(2,4-dichlorobenzyl)-1,4,5,6-tetrahydro-7H-indazol-7-ylidene)ethyl)carbamoyl)thiophene-2-sulfonamide], in test [1], the affinity corresponds to a Ki of 15 nM. Further, the IC50 in test [2] came to 28 nM.

Consider `COc1ccc(Cl)cc1S(=O)(=O)NC(=O)NC/C=C1\COCc2cnn(Cc3ccc(Cl)cc3Cl)c21` [Compound #66, (Z)-5-chloro-N-((2-(1-(2,4-dichlorobenzyl)-1,4-dihydropyrano[4,3-c]pyrazol-7(6H)-ylidene)ethyl)carbamoyl)-2-methoxybenzenesulfonamide], for which the Ki in test [1] amounted to 4 nM. Further, the 50% inhibitory concentration (IC50) in test [2] was determined as 21 nM.

The values are drawn from patent publication US20210253562A1, “ACYLSUFONAMIDE COMPOUNDS USEFUL AS EP3 RECEPTOR ANTAGONISTS” (Janssen Pharmaceutica NV, priority 2018, published 2021).
